Tests used:
Format in all cases: biochemical
Conditions in all cases: 10 μM ATP, 60 min, ADP-GLO luminescence
[1] = biological target: T1, MER (Homo sapiens, UniProt Q12866); experiment: Enzymatic assay (ADP-Glo kinase reaction), MER
T1 sequence (Q12866 21-999): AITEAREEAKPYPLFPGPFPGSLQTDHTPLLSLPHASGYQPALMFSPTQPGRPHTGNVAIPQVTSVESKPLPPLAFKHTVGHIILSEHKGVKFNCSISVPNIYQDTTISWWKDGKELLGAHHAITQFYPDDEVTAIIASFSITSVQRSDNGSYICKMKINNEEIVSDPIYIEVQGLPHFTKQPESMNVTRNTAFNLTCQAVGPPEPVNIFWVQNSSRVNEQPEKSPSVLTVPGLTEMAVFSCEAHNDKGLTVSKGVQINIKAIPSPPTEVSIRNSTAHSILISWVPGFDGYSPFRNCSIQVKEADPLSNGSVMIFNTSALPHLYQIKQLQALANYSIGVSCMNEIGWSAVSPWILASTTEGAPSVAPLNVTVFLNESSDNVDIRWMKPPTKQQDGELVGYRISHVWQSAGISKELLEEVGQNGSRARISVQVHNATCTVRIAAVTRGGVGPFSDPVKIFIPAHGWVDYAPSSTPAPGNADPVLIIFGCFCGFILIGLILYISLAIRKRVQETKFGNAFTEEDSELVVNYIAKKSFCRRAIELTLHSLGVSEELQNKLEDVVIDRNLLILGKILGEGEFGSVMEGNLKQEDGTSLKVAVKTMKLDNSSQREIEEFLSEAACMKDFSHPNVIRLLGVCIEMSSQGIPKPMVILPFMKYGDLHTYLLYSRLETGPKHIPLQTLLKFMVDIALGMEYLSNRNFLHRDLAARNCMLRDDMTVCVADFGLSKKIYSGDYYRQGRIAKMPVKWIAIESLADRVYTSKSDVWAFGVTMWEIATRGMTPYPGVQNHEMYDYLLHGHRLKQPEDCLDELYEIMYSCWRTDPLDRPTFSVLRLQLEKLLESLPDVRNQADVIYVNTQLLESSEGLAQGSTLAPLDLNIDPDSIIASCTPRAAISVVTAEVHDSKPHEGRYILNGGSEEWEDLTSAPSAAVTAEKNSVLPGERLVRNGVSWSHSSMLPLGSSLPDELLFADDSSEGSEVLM
Description: (§1) All the kinase reactions were performed in 5 μL using tyrosine kinase buffer with 0.2 μg/μL poly (Glu4, Tyr1) substrate, 10 μM ATP, serial dilution of the inhibitor, and incubated at room temperature for 60 min. After the indicated incubation times, 5 μL ADP-GLO™ reagent (Promega, Madison, WI) was added to the reactions and the plate was incubated at room temperature for 40 min. Then, 10 μL of kinase detection reagent was added and after an incubation time of 40 min, luminescence was recorded and IC50 values were determined (Table 1). All 384-well assay plates were read using a GLOMAX™ Discover Microplate Luminometer from Promega (Madison, WI). To plot, analyze the data and calculate all kinase reaction biochemical values, both Microsoft Excel and Prism from GraphPad 7 Software (La Jolla, CA) were used.
as §1, with “3).” for “1).”

[2] = biological target: T2, AXL (Homo sapiens, UniProt P30530); experiment: Enzymatic assay (ADP-Glo kinase reaction), AXL
T2 sequence (P30530 26-894): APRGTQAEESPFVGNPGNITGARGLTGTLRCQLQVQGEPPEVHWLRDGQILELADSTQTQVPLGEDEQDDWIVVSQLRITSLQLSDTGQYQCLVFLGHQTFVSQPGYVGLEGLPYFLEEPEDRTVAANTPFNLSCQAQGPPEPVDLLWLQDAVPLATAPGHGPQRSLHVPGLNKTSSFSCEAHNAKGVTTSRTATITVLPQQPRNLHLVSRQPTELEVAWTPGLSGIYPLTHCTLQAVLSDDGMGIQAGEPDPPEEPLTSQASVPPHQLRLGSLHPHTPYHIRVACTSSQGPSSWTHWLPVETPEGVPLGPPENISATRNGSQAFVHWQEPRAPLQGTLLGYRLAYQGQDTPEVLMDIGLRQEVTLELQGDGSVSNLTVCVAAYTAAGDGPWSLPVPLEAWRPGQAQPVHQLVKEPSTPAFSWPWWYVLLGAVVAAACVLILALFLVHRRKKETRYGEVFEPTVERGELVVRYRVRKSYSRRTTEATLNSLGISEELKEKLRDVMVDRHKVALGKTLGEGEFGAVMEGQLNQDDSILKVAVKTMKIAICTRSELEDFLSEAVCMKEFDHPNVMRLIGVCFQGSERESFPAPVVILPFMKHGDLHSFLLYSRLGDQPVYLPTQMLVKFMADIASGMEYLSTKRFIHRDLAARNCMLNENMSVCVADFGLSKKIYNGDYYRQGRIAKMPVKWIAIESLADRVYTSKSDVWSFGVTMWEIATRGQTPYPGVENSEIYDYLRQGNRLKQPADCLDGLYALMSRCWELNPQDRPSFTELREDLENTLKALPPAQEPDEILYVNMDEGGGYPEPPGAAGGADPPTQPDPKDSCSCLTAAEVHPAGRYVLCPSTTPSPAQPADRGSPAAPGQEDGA
Description: as §1, with “Then, 10 μL of kinase detection reagent was added and after an incubation time of 40 min, luminescence was recorded and IC50 values were determined (Table 1).” left out

[3] = biological target: c-MET (Homo sapiens, UniProt P08581); experiment: Enzymatic assay (ADP-Glo kinase reaction), c-MET
Description: as §1, with “Then, 10 μL of kinase detection reagent was added and after an incubation time of 40 min, luminescence was recorded and IC50 values were determined (Table 1).” left out

Chain of c-MET (P08581 25-1390): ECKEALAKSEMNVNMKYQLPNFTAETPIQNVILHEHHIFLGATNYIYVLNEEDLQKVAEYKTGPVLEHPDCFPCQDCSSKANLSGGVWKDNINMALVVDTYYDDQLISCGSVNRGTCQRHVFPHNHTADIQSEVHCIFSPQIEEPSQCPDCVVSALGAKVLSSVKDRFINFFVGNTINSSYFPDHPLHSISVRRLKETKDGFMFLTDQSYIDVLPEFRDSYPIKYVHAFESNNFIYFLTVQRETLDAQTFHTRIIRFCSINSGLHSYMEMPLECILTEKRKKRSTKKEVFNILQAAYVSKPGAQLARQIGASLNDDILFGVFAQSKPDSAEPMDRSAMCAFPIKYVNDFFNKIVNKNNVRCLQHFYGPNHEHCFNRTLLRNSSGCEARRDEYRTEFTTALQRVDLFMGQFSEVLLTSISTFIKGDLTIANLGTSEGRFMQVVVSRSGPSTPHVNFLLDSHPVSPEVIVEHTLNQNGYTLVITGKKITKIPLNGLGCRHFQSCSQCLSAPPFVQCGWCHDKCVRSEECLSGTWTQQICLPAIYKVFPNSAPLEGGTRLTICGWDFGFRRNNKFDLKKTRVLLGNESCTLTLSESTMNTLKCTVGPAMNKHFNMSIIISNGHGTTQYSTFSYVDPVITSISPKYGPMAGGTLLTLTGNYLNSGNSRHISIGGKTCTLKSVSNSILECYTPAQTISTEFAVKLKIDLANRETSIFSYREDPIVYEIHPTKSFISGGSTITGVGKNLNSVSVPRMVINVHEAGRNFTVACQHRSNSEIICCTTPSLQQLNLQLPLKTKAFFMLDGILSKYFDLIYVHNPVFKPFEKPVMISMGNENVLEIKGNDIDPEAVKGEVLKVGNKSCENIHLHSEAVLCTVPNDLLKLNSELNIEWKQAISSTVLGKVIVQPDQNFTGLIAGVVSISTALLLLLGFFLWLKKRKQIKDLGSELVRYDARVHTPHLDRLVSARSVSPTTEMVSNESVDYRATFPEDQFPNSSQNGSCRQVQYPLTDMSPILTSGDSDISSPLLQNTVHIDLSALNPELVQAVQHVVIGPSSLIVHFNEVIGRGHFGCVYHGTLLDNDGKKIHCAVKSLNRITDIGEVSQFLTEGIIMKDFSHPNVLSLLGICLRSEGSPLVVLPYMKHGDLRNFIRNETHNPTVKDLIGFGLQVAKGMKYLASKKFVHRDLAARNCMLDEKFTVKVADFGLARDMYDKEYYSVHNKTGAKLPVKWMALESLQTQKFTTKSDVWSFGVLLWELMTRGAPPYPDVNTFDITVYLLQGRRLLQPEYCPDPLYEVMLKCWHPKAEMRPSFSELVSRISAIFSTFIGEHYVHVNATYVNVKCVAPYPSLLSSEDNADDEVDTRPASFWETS

| SMILES | IC50 [1] [nM] | IC50 [2] [nM] | IC50 [3] [nM] |
| --- | --- | --- | --- |
| CC(C)N1CCC(CC#Cc2c(Oc3ccc(NC(=O)c4cn(C(C)C)c(=O)n(-c5ccc(F)cc5)c4=O)cc3F)ccnc2N)CC1 [Example 29, N-(4-(2-amino-3-(3-(1-isopropylpiperidin-4-yl)prop-1-ynyl)pyridin-4-yloxy)-3-fluorophenyl)-3-(4-fluorophenyl)-1-isopropyl-2,4-dioxo-1,2,3,4-tetrahydropyrimidine-5-carboxamide] | < 10 | < 10 | < 10 |
| CN(C)C(=O)Cn1cc(C(=O)Nc2ccc(Oc3ccnc(N)c3C#CC(C)(C)N3CCOCC3)c(F)c2)c(=O)n(-c2ccc(F)cc2)c1=O [Example 33, N-(4-((2-amino-3-(3-methyl-3-morpholinobut-1-yn-1-yl)pyridin-4-yl)oxy)-3-fluorophenyl)-1-(2-(dimethylamino)-2-oxoethyl)-3-(4-fluorophenyl)-2,4-dioxo-1,2,3,4-tetrahydropyrimidine-5-carboxamide] | < 100 | < 10000 | < 1000 |
| CN(C)C(=O)Cn1cc(C(=O)Nc2ccc(Oc3ccnc(N)c3C#CCN3CCOCC3)c(F)c2)c(=O)n(-c2ccc(F)cc2)c1=O [Example 34, N-(4-((2-amino-3-(3-morpholinoprop-1-yn-1-yl)pyridin-4-yl)oxy)-3-fluorophenyl)-1-(2-(dimethylamino)-2-oxoethyl)-3-(4-fluorophenyl)-2,4-dioxo-1,2,3,4-tetrahydropyrimidine-5-carboxamide] | < 100 | < 1000 | < 10000 |
| CN(C)C(=O)Cn1cc(C(=O)Nc2ccc(Oc3ccnc(N)c3C#CC(C)(C)N3CCNCC3)c(F)c2)c(=O)n(-c2ccc(F)cc2)c1=O [Example 35, N-(4-((2-amino-3-(3-methyl-3-(piperazin-1-yl)but-1-yn-1-yl)pyridin-4-yl)oxy)-3-fluorophenyl)-1-(2-(dimethylamino)-2-oxoethyl)-3-(4-fluorophenyl)-2,4-dioxo-1,2,3,4-tetrahydropyrimidine-5-carboxamide] | < 100 | < 10000 | < 10000 |
| CN1CCN(C(C)(C)C#Cc2c(Oc3ccc(NC(=O)c4cn(CC(=O)N(C)C)c(=O)n(-c5ccc(F)cc5)c4=O)cc3F)ccnc2N)CC1 [Example 36, N-(4-((2-amino-3-(3-methyl-3-(4-methylpiperazin-1-yl)but-1-yn-1-yl)pyridin-4-yl)oxy)-3-fluorophenyl)-1-(2-(dimethylamino)-2-oxoethyl)-3-(4-fluorophenyl)-2,4-dioxo-1,2,3,4-tetrahydropyrimidine-5-carboxamide] | < 1000 | < 10000 | < 10000 |
| CN1CCC(CC#Cc2c(Oc3ccc(NC(=O)c4cn(CC(=O)N(C)C)c(=O)n(-c5ccc(F)cc5)c4=O)cc3F)ccnc2N)CC1 [Example 37, N-(4-((2-amino-3-(3-(1-methylpiperidin-4-yl)prop-1-yn-1-yl)pyridin-4-yl)oxy)-3-fluorophenyl)-1-(2-(dimethylamino)-2-oxoethyl)-3-(4-fluorophenyl)-2,4-dioxo-1,2,3,4-tetrahydropyrimidine-5-carboxamide] | < 10 | < 100 | < 10000 |
| CN(C)C(=O)Cn1cc(C(=O)Nc2ccc(Oc3ccnc(N)c3C#CCC3CCNCC3)c(F)c2)c(=O)n(-c2ccc(F)cc2)c1=O [Example 38, N-(4-((2-amino-3-(3-(piperidin-4-yl)prop-1-yn-1-yl)pyridin-4-yl)oxy)-3-fluorophenyl)-1-(2-(dimethylamino)-2-oxoethyl)-3-(4-fluorophenyl)-2,4-dioxo-1,2,3,4-tetrahydropyrimidine-5-carboxamide] | < 10 | < 100 | < 10 |
| Cc1nc(Cn2cc(C(=O)Nc3ccc(Oc4ccnc(N)c4C#CC(C)(C)N4CCOCC4)c(F)c3)c(=O)n(-c3ccc(F)cc3)c2=O)cs1 [Example 39, N-(4-((2-amino-3-(3-methyl-3-morpholinobut-1-yn-1-yl)pyridin-4-yl)oxy)-3-fluorophenyl)-3-(4-fluorophenyl)-1-((2-methylthiazol-4-yl)methyl)-2,4-dioxo-1,2,3,4-tetrahydropyrimidine-5-carboxamide] | < 100 | < 100 | < 100 |
| Cc1nc(Cn2cc(C(=O)Nc3ccc(Oc4ccnc(N)c4C#CCN4CCOCC4)c(F)c3)c(=O)n(-c3ccc(F)cc3)c2=O)cs1 [Example 40, N-(4-((2-amino-3-(3-morpholinoprop-1-yn-1-yl)pyridin-4-yl)oxy)-3-fluorophenyl)-3-(4-fluorophenyl)-1-((2-methylthiazol-4-yl)methyl)-2,4-dioxo-1,2,3,4-tetrahydropyrimidine-5-carboxamide] | < 100 | < 100 | < 1000 |
| Cc1nc(Cn2cc(C(=O)Nc3ccc(Oc4ccnc(N)c4C#CC(C)(C)N4CCNCC4)c(F)c3)c(=O)n(-c3ccc(F)cc3)c2=O)cs1 [Example 41, N-(4-((2-amino-3-(3-methyl-3-(piperazin-1-yl)but-1-yn-1-yl)pyridin-4-yl)oxy)-3-fluorophenyl)-3-(4-fluorophenyl)-1-((2-methylthiazol-4-yl)methyl)-2,4-dioxo-1,2,3,4-tetrahydropyrimidine-5-carboxamide] | < 100 | < 100 | < 100 |
| Cc1nc(Cn2cc(C(=O)Nc3ccc(Oc4ccnc(N)c4C#CC(C)(C)N4CCN(C)CC4)c(F)c3)c(=O)n(-c3ccc(F)cc3)c2=O)cs1 [Example 42, N-(4-((2-amino-3-(3-methyl-3-(4-methylpiperazin-1-yl)but-1-yn-1-yl)pyridin-4-yl)oxy)-3-fluorophenyl)-3-(4-fluorophenyl)-1-((2-methylthiazol-4-yl)methyl)-2,4-dioxo-1,2,3,4-tetrahydropyrimidine-5-carboxamide] | < 100 | < 1000 | < 100 |

Reference: US20250171426A1, “PYRIMIDINEDIONE-BASED COMPOUNDS AS AXL, C-MET, AND MER INHIBITORS AND METHODS OF USE THEREOF” (CMG Pharmaceutical Co., Ltd., priority 2022, published 2025)
